Source: US20260285850A1, “SUBSTITUTED OXAZOLIDINONES AND IMIDAZOLINONES AS HERBICIDES” (FMC CORPORATION, priority 2023, published 2026)

Key:
Assay type in all cases: in vivo
[1] = system: green foxtail (Setaria viridis); test: Test A preemergence soil spray, visual injury rating 0-100; settings: 10 days
Procedure, shortened: (§1)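 Compound in a non-phytotoxic, surfactant-containing solvent is applied either as a directed soil spray before seedlings emerge or onto emerged plants 2-10 cm tall; pots hold a loam-sand blend. Plants grow 10 days under greenhouse conditions and are rated by eye against untreated controls (0 no effect, 100 complete control).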

soybean (Glycine max) [2] = test: as above; settings: 10 days
Procedure, shortened: as §1

[3] = system: oat, wild (wild oat, Avena fatua); test: as above; settings: 10 days
Procedure, shortened: as §1

[4] = system: ryegrass, Italian (italian ryegrass, Lolium multiflorum); test: as above; settings: 10 days
Procedure, shortened: as §1

corn (Zea mays) [5] = test: as above; settings: 10 days
Procedure, shortened: as §1

[6] = system: blackgrass (Alopecurus myosuroides); test: as above; settings: 10 days
Procedure, shortened: as §1

[7] = system: barnyardgrass (Echinochloa crus-galli); test: as above; settings: 10 days
Procedure, shortened: as §1

[8] = system: wheat (Triticum aestivum); test: as above; settings: 10 days
Procedure, shortened: as §1

[9] = system: ragweed (common ragweed, Ambrosia artemisiifolia); test: as above; settings: 10 days
Procedure, shortened: as §1

[10] = system: palmer (palmer amaranth, palmer pigweed, Amaranthus palmeri); test: as above; settings: 10 days
Procedure, shortened: as §1

kochia (Bassia scoparia) [11] = test: as above; settings: 10 days
Procedure, shortened: as §1

[12] = system: green foxtail (Setaria viridis); test: Test A postemergence application, visual injury rating 0-100
Procedure, shortened: as §1

soybean (Glycine max) [13] = test: as above
Procedure, shortened: as §1

[14] = system: oat, wild (wild oat, Avena fatua); test: as above
Procedure, shortened: as §1

[15] = system: ryegrass, Italian (italian ryegrass, Lolium multiflorum); test: as above
Procedure, shortened: as §1

corn (Zea mays) [16] = test: as above
Procedure, shortened: as §1

[17] = system: blackgrass (Alopecurus myosuroides); test: as above
Procedure, shortened: as §1

[18] = system: horseweed (Erigeron canadensis); test: as above
Procedure, shortened: as §1

[19] = system: barnyardgrass (Echinochloa crus-galli); test: as above
Procedure, shortened: as §1

[20] = system: wheat (Triticum aestivum); test: as above
Procedure, shortened: as §1

[21] = system: ragweed (common ragweed, Ambrosia artemisiifolia); test: as above
Procedure, shortened: as §1

[22] = system: palmer (palmer amaranth, palmer pigweed, Amaranthus palmeri); test: as above
Procedure, shortened: as §1

[23] = system: galium (catchweed bedstraw, Galium aparine); test: as above
Procedure, shortened: as §1

kochia (Bassia scoparia) [24] = test: as above
Procedure, shortened: as §1

[25] = system: sedge, umbrella (small-flower umbrella sedge, Cyperus difformis); test: Test B flooded paddy test, visual plant response rating 0-100; settings: 250 g ai/ha, Flood, applied to paddy water, evaluated after 13 days
Procedure, shortened: (§2)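 Paddy-water application: test compounds went directly into water flooded 3 cm above the soil surface, with plants at 2 leaves. After a 13-day greenhouse period, responses were judged by eye relative to controls; a dash marks an untested entry.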

[26] = system: barnyardgrass (Echinochloa crusgalli); test: as above; settings: 250 g ai/ha, Flood, applied to paddy water, evaluated after 13 days
Procedure, shortened: as §2

rice (Oryza sativa) = test: as above; settings: 250 g ai/ha, Flood, applied to paddy water, evaluated after 13 days
Procedure, shortened: as §2

[27] = system: ducksalad (Heteranthera limosa); test: as above; settings: 250 g ai/ha, Flood, applied to paddy water, evaluated after 13 days
Procedure, shortened: as §2

[28] = 62 g ai/ha, 0 = no effect, 100 = complete control
[29] = 62 g ai/ha, postemergence, 10 days, 0 = no effect, 100 = complete control
[30] = Postemergence, 16 g ai/ha, greenhouse 10 days, 0 no effect, 100 complete control

Structure (SMILES): CC1(C(=O)NC2CC=C(C(=O)O)C2)CN(c2cc(F)cc(F)c2)C(=O)O1 (stereo not shown) [Compound 94]
- Foxtail, Green plant response rating ([1]; 16 g ai/ha, 0 to 100 scale): 10
- Foxtail, Green plant response rating (0-100) [1, 28]: 90
- Soybean plant response rating (soybean (Glycine max) [2]; 16 g ai/ha, 0 to 100 scale): 10
- Soybean plant response rating (0-100) (soybean (Glycine max) [2]; [28]): 30
- Oat, Wild plant response rating ([3]; 16 g ai/ha, 0 to 100 scale): 10
- Oat, Wild plant response rating (0-100) [3, 28]: 50
- Ryegrass, Italian plant response rating ([4]; 16 g ai/ha, 0 to 100 scale): 60
- Ryegrass, Italian plant response rating (0-100) [4, 28]: 70
- Corn plant response rating (corn (Zea mays) [5]; 16 g ai/ha, 0 to 100 scale): 40
- Corn plant response rating (0-100) (corn (Zea mays) [5]; [28]): 80
- Blackgrass plant response rating ([6]; 16 g ai/ha, 0 to 100 scale): 30
- Blackgrass plant response rating (0-100) [6, 28]: 60
- Barnyardgrass plant response rating ([7]; 16 g ai/ha, 0 to 100 scale): 40
- Barnyardgrass plant response rating (0-100) [7, 28]: 100
- Wheat plant response rating ([8]; 16 g ai/ha, 0 to 100 scale): 60
- Wheat plant response rating (0-100) [8, 28]: 90
- Ragweed plant response rating ([9]; 16 g ai/ha, 0 to 100 scale): 20
- Ragweed plant response rating (0-100) [9, 28]: 40
- Pigweed, Palmer plant response rating ([10]; 16 g ai/ha, 0 to 100 scale): 20
- Pigweed, Palmer plant response rating (0-100) [10, 28]: 60
- Kochia plant response rating (kochia (Bassia scoparia) [11]; 16 g ai/ha, 0 to 100 scale): 0
- Kochia plant response rating (0-100) (kochia (Bassia scoparia) [11]; [28]): 90
- Foxtail, Green plant response rating (0-100) [12, 29]: 90
- Foxtail, Green plant response rating (0 to 100 scale) [12, 30]: 60
- Soybean plant response rating (0-100) (soybean (Glycine max) [13]; [29]): 70
- Soybean plant response rating (0 to 100 scale) (soybean (Glycine max) [13]; [30]): 60
- Oat, Wild plant response rating (0-100) [14, 29]: 90
- Oat, Wild plant response rating (0 to 100 scale) [14, 30]: 40
- Ryegrass, Italian plant response rating (0-100) [15, 29]: 90
- Ryegrass, Italian plant response rating (0 to 100 scale) [15, 30]: 70
- Corn plant response rating (0-100) (corn (Zea mays) [16]; [29]): 100
- Corn plant response rating (0 to 100 scale) (corn (Zea mays) [16]; [30]): 100
- Blackgrass plant response rating (0-100) [17, 29]: 90
- Blackgrass plant response rating (0 to 100 scale) [17, 30]: 80
- Horseweed plant response rating (0-100) [18, 29]: 60
- Horseweed plant response rating (0 to 100 scale) [18, 30]: 20
- Barnyardgrass plant response rating (0-100) [19, 29]: 100
- Barnyardgrass plant response rating (0 to 100 scale) [19, 30]: 100
- Wheat plant response rating (0-100) [20, 29]: 90
- Wheat plant response rating (0 to 100 scale) [20, 30]: 60
- Ragweed plant response rating (0-100) [21, 29]: 50
- Ragweed plant response rating (0 to 100 scale) [21, 30]: 50
- Pigweed, Palmer plant response rating (0-100) [22, 29]: 90
- Pigweed, Palmer plant response rating (0 to 100 scale) [22, 30]: 50
- Galium plant response rating (0-100) [23, 29]: 90
- Galium plant response rating (0 to 100 scale) [23, 30]: 70
- Kochia plant response rating (0-100) (kochia (Bassia scoparia) [24]; [29]): 90
- Kochia plant response rating (0 to 100 scale) (kochia (Bassia scoparia) [24]; [30]): 80
- Plant response rating, Sedge, Umbrella (0 to 100 scale, 0 is no effect and 100 is complete control) [25]: 95
- Plant response rating, Barnyardgrass (0 to 100 scale, 0 is no effect and 100 is complete control) [26]: 95
- Plant response rating, Rice (0 to 100 scale, 0 is no effect and 100 is complete control) (rice (Oryza sativa)): 75
- Plant response rating, Ducksalad (0 to 100 scale, 0 is no effect and 100 is complete control) [27]: 95
